Assay results reported in patent publication US10363248B2, “Salts of heterocyclic modulators of HIF activity for treatment of disease” (priority 2014, dated 2019).
Several values for one entry are separate records, joined by “and”; a condition that tells them apart may be missing. Equal entries are not always repeated. Entries after “also recorded” stand apart in the source; their conditions may differ. Structures can show the parent of a compound that is named as a salt. Where two headings read alike, the source gives them in different places.

How the values were obtained:
[1] = Plasma concentration-time data and PK parameters after a PO dose of 10 mg/kg in female CD1 nude mice (Groups 1-5)
Description: (§1) Pharmacokinetic studies were performed in female CD-1 nude mice. —Either 10 or 50 mg/kg of each test article was administered PO, QD in 0.5% methylcellulose aqueous solution or suspension. […] Plasma concentrations were analyzed using a LC/MS method and the pharmacokinetic parameters computed using a noncompartmental method.

[2] = Dynamic vapor sorption (DVS); assay type: physicochemical; settings: for form transformation after DVS test: XRPD after DVS; for hygroscopicity classification: according to DVS result; for DVS Sorption (%): weight gain from 0 to 80% RH, 25° C
Description: Transfer about 10 mg of sample into a DVS (DVS Advantage-1, SMS) and record the weight change with respect to the atmospheric humidity at 25° C. Use the following parameters: Equilibrium: dm/dt: 0.01%/min. (for min: 10 min and max: 180 min). Drying: 0% RH for 120 min RH (%) measurement step: 10%; RH (%) measurement step scope: 0-90-0%

[3] = Plasma concentration in female CD-1 nude mice, formulation groups A-C; assay type: in vivo; settings: for concentration at 6 h: time point 6 h; for concentration at 6 h / concentration at 8 h: individual mouse; for concentration at 8 h: time point 8 h; for concentration at 24 h: group mean
Description: as §1

[4] = tested on: NB-1 xenografts; test: NB-1 xenograft model; assay type: in vivo, CD-1 nude mice; settings: daily oral treatment with 10 mg/kg; FIG. 5
[5] = tested on: OCI-AML3 cell line; test: Acute myeloid leukemia cell viability; assay type: cell-based; settings: various concentrations, 2 days; normalized to DMSO; FIG. 6
Description: (§2) The OCI-AML3 cell line was treated with various concentrations of compound for 2 days and the percent of viable cells normalized to control cells treated with DMSO (FIG. 6). OCI-AML3 cells constitutively expressing luciferase were tail vein injected in NSG nude mice. 17 days after cell injection, luciferin was injected into animals and luciferase signal was measured using an IVIS imaging system to determine tumor burden and for randomization of subjects into study groups. On day 18, animals began receiving daily oral doses of vehicle or 10 mpk of the compound of Example 80 which continued throughout the study. On day 28, imaging was performed again to determine tumor burden (FIG. 7).

[6] = tested on: OCI-AML3 cells; test: OCI-AML3 human leukemia model in NSG mice; assay type: in vivo, NSG nude mice; settings: daily oral 10 mg/kg
Description: as §2

[7] = tested on: D423 cells; test: Glioblastoma cellular assay D423; assay type: cell-based; settings: various concentrations; FIG. 4
Description: (§3) NB-1, Gli56, and D423 cell lines are deleted for ENO-1 (GLI56 and D423) or PGD, which renders them with reduced glycolytic capacity (Muller, F. et al., Nature, 2012, 488, 337-42).

[8] = tested on: NB-1 cells; test: Neuroblastoma cellular assay; assay type: cell-based; settings: various concentrations
Description: as §3

[9] = tested on: 293T-HRE-GFP-luc cells; test: Cell-based reporter assay for IC50 determinations; settings: hypoxia for 6 hrs. (1% O2); luminescence; read-out: IC50 Classification
Description: IC50 values were calculated using a four-parameter logistic curve fit.

[10] = tested on: Gli56 cells; test: Glioblastoma cellular assay Gli56; assay type: cell-based; settings: various concentrations
Description: as §3

[11] = tested on: TMD8 cells; test: Diffuse large B-cell lymphoma (DLBCL) assay, viable cells; assay type: cell-based; settings: varying concentrations, 7 days; Guava ViaCount; FIG. 1
Description: Equal number of TMD8 cells were plated and treated with varying concentrations of the compound of Example 80 for 7 days. Percent of viable cells was determined using Guava ViaCount reagents (EMD Millipore cat #4000-0040) that contains proprietary dyes that enable the determination of the number of live and dead cells in a sample (FIG. 1).

[12] = female, CD-1 nude, mouse, oral, read-out: Calc. Conc.
[13] = female, CD-1 nude, mouse, oral, read-out: Calc. Conc. (ng/mL)
[14] = time point 2 h, individual mice, PO, QD, 10 or 50 mg/kg, listed as C, methanesulfonate
[15] = time point <24, individual mouse
[16] = time point 2 h, individual mice, PO, QD, 10 or 50 mg/kg, listed as A
[17] = time point 24 h, individual mice, PO, QD, 10 or 50 mg/kg, listed as A
[18] = female, CD-1 nude, mouse, in vivo, po, 10 mg/kg
[19] = time point 2 h, individual mice, PO, QD, 10 or 50 mg/kg, 2,2,2-trifluoroacetate
[20] = time point 24 h, individual mice, PO, QD, 10 or 50 mg/kg, 2,2,2-trifluoroacetate

Compound: Cc1nc(-c2nc(-c3ccc(OC(F)(F)F)cc3)no2)nn1Cc1cccc(N2CCC(S(C)(=O)=O)CC2)c1.O=S(=O)(O)c1ccccc1 [BESYLATE SALT, 1-(3-((5-methyl-3-(3-(4-(trifluoromethoxy)phenyl)-1,2,4-oxadiazol-5-yl)-1H-1,2,4-triazol-1-yl)methyl)phenyl)-4-(methylsulfonyl)piperidin-1-ium benzenesulfonate]
- oral bioavailability in comparison to the free base ([1]; mouse, in vivo, po): improved oral bioavailability
- plasma concentrations compared with the free base ([1]; mouse, in vivo, po): significantly higher

Compound: Cc1nc(-c2nc(-c3ccc(OC(F)(F)F)cc3)no2)nn1Cc1cccc(N2CCC(S(C)(=O)=O)CC2)c1 [HYDROCHLORIDE SALT, 5-(5-methyl-1-(3-(4-(methylsulfonyl)piperidin-1-yl)benzyl)-1H-1,2,4-triazol-3-yl)-3-(4-(trifluoromethoxy)phenyl)-1,2,4-oxadiazole hydrochloride]
- form transformation after DVS test [2]: No form transformation was observed
- hygroscopicity classification [2]: slightly hygroscopic
- DVS Sorption (%) ([2]; listed as HCl, hydrochloride): 1.59%
- DVS Sorption (%) ([2]; listed as hydrochloride candidate, hydrochloride): 1.59%
- oral bioavailability in comparison to the free base ([1]; mouse, in vivo, po): improved oral bioavailability

Compound: Cc1nc(-c2nc(-c3ccc(OC(F)(F)F)cc3)no2)nn1Cc1cccc(N2CCC(S(C)(=O)=O)CC2)c1.Cl [5-(5-methyl-1-(3-(4-(methylsulfonyl)piperidin-1-yl)benzyl)-1H-1,2,4-triazol-3-yl)-3-(4-(trifluoromethoxy)phenyl)-1,2,4-oxadiazole hydrochloride]
- plasma concentrations compared with the free base ([1]; mouse, in vivo, po): significantly higher

Compound: CS(=O)(=O)O.Cc1nc(-c2nc(-c3ccc(OC(F)(F)F)cc3)no2)nn1Cc1cccc(N2CCC(S(C)(=O)=O)CC2)c1 [MESYLATE SALT, 1-(3-((5-methyl-3-(3-(4-(trifluoromethoxy)phenyl)-1,2,4-oxadiazol-5-yl)-1H-1,2,4-triazol-1-yl)methyl)phenyl)-4-(methylsulfonyl)piperidin-1-ium methanesulfonate]
- form transformation after DVS test [2]: No form transformation was observed
- hygroscopicity classification [2]: hygroscopic
- DVS Sorption (%) [2]: 2.47%
- concentration at 6 h [3, 12]: 2950 nM
- concentration at 6 h [3, 13]: 1660 ng/mL
- concentration at 8 h [3, 12]: 2910 nM
- concentration at 8 h [3, 13]: 1640 ng/mL
- concentration at 24 h ([3]; time point 2 h, PO, QD, 10 or 50 mg/kg): 2249.9 nM
- Calc. Conc. (nM) [3, 14]: 2676.0 nM and 1457.7 nM and 2725.3 nM and 2248.5 nM and 2141.9 nM
- Calc. Conc. (ng/mL) [3, 14]: 1504.5 ng/mL and 819.5 ng/mL and 1532.2 ng/mL and 1264.1 ng/mL and 1204.2 ng/mL
- Calc. Conc. (nM) [3, 15]: 1469.8 nM
- Calc. Conc. (ng/mL) [3, 15]: 826.3 ng/mL
- oral bioavailability in comparison to the free base ([1]; mouse, in vivo, po): improved oral bioavailability
- plasma concentrations compared with the free base ([1]; mouse, in vivo, po): significantly higher

Compound: Cc1nc(-c2nc(-c3ccc(OC(F)(F)F)cc3)no2)nn1Cc1cccc(N2CCC(S(C)(=O)=O)CC2)c1 [Example 80, 4-Methanesulfonyl-1-{3-[(5-methyl-3-{3-[4-(trifluoromethoxy)phenyl]-1,2,4-oxadiazol-5-yl}-1H-1,2,4-triazol-1-yl)methyl]phenyl}piperidine]
- growth of NB-1 xenografts (tumor growth) [4]: reduces the tumor growth
- number of viable OCI-AML3 cells [5]: reduced number of viable cells
- disease burden measured by IVIS imaging ([6]; FIG. 7): reduces disease burden
- survival ([6]; relative to vehicle, FIG. 8, 10 mg/kg): extends survival; also recorded: significantly increased their survival
- number of viable D423 cells [7]: reduced number of viable cells; also recorded: cell numbers are significantly reduced
- cell death in NB-1 cells [8]: cell death readily apparent
- number of viable NB-1 cells ([8]; FIG. 2): reduced number of viable cells; also recorded: cell numbers are significantly reduced
- IC50 [9]: < 100 nM
- cell death in Gli56 cells [10]: cell death readily apparent
- number of viable Gli56 cells ([10]; FIG. 3): reduced number of viable cells; also recorded: cell numbers are significantly reduced
- DVS Sorption (%) [2]: 0.16%
- number/percent of viable TMD8 cells [11]: reduced number of viable cells; also recorded: respond robustly
- concentration at 24 h ([3]; female, CD-1 nude, mouse, oral, time point 24 h, PO, QD, 10 or 50 mg/kg): 414 nM
- concentration at 24 h ([3]; time point 2 h, PO, QD, 10 or 50 mg/kg, listed as A): 561.2 nM
- Calc. Conc. (nM) [3, 16]: 591.7 nM and 510.0 nM and 285.4 nM and 657.3 nM and 761.7 nM
- Calc. Conc. (ng/mL) [3, 16]: 332.7 ng/mL and 286.7 ng/mL and 160.4 ng/mL and 369.5 ng/mL and 428.2 ng/mL
- Calc. Conc. (nM) [3, 17]: 987.2 nM and 307.2 nM and 342.7 nM and 233.3 nM and 201.3 nM
- Calc. Conc. (ng/mL) [3, 17]: 555.0 ng/mL and 172.7 ng/mL and 192.7 ng/mL and 131.2 ng/mL and 113.1 ng/mL
- AUCINF [1, 18]: 16.2 µM·h
- AUClast [1, 18]: 12.1 µM·h
- Cmax [1, 18]: 959 nM
- Terminal t1/2 [1, 18]: 12.4 h
- Concentration Mean ([1]; female, CD-1 nude, mouse, in vivo, po, 10 mg/kg, 0.083 hr): 28.9 nM
- Concentration Mean ([1]; female, CD-1 nude, mouse, in vivo, po, 10 mg/kg, 0.25 hr): 280 nM
- Concentration Mean ([1]; female, CD-1 nude, mouse, in vivo, po, 10 mg/kg, 0.5 hr): 440 nM

Compound: Cc1nc(-c2nc(-c3ccc(OC(F)(F)F)cc3)no2)nn1Cc1cccc(N2CCC(S(C)(=O)=O)CC2)c1 [B, 5-(5-methyl-1-(3-(4-(methylsulfonyl)piperidin-1-yl)benzyl)-1H-1,2,4-triazol-3-yl)-3-(4-(trifluoromethoxy)phenyl)-1,2,4-oxadiazole 2,2,2-trifluoroacetate]
- concentration at 24 h ([3]; time point 2 h, PO, QD, 10 or 50 mg/kg, 2,2,2-trifluoroacetate): 834.8 nM
- Calc. Conc. (nM) [3, 19]: 1131.9 nM and 748.0 nM and 793.6 nM and 632.1 nM and 868.2 nM
- Calc. Conc. (ng/mL) [3, 19]: 636.4 ng/mL and 420.5 ng/mL and 446.2 ng/mL and 355.4 ng/mL and 488.1 ng/mL
- concentration at 24 h ([3]; time point 24 h, PO, QD, 10 or 50 mg/kg, 2,2,2-trifluoroacetate): 776.4 nM
- Calc. Conc. (nM) [3, 20]: 1426.5 nM and 220.7 nM and 1116.1 nM and 490.3 nM and 628.2 nM
- Calc. Conc. (ng/mL) [3, 20]: 802.0 ng/mL and 124.1 ng/mL and 627.5 ng/mL and 275.6 ng/mL and 353.2 ng/mL

Compound: Cc1nc(-c2nc(-c3ccc(OC(F)(F)F)cc3)no2)nn1Cc1cccc(N2CCC(S(C)(=O)=O)CC2)c1.O=C(O)C(F)(F)F [5-(5-methyl-1-(3-(4-(methylsulfonyl)piperidin-1-yl)benzyl)-1H-1,2,4-triazol-3-yl)-3-(4-(trifluoromethoxy)phenyl)-1,2,4-oxadiazole 2,2,2-trifluoroacetate]
- plasma concentrations compared with the free base ([1]; CD-1 mice, PO): significantly higher
